From the Kinase Knowledgebase extract (Sharma et al. 2016)
Values belong to the molecule of their own block, whether it stands above or below them.

Target: PIK3CA (human) (UniProt P42336)
Assay: Assessment of PIK3CA Kinase Activity

PIK3CA (human), sequence (P42336 whole entry, looked up): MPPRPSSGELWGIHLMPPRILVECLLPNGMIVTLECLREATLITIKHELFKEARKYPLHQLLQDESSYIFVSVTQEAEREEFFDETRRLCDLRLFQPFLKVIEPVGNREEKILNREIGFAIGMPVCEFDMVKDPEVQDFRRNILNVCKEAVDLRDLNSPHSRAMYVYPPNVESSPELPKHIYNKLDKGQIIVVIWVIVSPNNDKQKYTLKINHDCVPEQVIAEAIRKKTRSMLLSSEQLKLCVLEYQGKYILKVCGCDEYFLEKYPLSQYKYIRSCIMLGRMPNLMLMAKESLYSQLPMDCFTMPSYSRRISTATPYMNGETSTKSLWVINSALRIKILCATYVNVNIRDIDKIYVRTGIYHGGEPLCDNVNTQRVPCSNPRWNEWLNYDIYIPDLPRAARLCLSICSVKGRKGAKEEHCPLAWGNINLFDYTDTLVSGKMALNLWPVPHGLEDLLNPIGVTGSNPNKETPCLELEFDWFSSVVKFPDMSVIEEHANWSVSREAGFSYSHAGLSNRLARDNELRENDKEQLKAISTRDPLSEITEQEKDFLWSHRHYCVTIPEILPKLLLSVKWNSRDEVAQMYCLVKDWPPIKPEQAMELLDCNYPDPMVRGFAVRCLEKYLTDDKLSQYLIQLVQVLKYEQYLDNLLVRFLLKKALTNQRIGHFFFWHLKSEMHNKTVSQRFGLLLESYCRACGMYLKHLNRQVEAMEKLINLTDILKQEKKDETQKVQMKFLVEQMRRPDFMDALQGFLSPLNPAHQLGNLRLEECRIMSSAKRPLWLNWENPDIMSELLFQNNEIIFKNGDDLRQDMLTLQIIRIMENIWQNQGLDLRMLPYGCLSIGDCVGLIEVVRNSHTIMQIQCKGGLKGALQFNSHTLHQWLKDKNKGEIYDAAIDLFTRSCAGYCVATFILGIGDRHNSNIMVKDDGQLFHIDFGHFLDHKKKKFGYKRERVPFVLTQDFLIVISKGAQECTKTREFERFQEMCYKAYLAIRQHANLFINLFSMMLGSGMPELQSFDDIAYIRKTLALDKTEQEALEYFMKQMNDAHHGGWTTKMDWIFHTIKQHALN

IC50: 16 nM
Structure (SMILES): O=C(Nc1ccncc1)Nc1ccc(-c2cc(N3CCOCC3)nc(N3CCOCC3)n2)cc1

IC50: 80.5 nM
Structure (SMILES): C[C@@H]1COCCN1c1cc(C2CCOCC2)nc(-c2ccc(NC(=O)Nc3ccc(C(=O)N4CCN(C)CC4)cc3)cc2)n1

IC50: 312 nM
Structure (SMILES): CCNC(=O)Nc1ccc(-c2nc(N3CCOCC3)c3sccc3n2)cc1

IC50: 155 nM
Structure (SMILES): O=C(Nc1ccc(-c2ncc([N+](=O)[O-])c(N3CCOCC3)n2)cc1)Nc1cccnc1

IC50: 112 nM
Structure (SMILES): O=C(Nc1ccc(-c2nccc(N3CCOCC3)n2)cc1)Nc1ccc(N2CCOCC2)nc1

IC50: 9 nM
Structure (SMILES): O=C(Nc1ccncc1)Nc1ccc(-c2nc(N3CCOCC3)c3sccc3n2)cc1

IC50: 46 nM
Structure (SMILES): CN1CCN(c2ccc(NC(=O)Nc3ccc(-c4nccc(N5CCOCC5)n4)cc3)cn2)CC1

IC50: 384 nM
Structure (SMILES): CNC(=O)Nc1ccc(-c2nccc(N3CCOCC3)n2)cc1

IC50: 19 nM
Structure (SMILES): CN1CCN(c2ccc(NC(=O)Nc3ccc(-c4nccc(N5CCOCC5)n4)cc3)cc2)CC1

IC50: 694 nM
Structure (SMILES): C[C@@H]1COCCN1c1cc(C2CCOCC2)nc(-c2ccc(NC(=O)Nc3ccc(N4CCN(C)CC4)nc3)cc2)n1

IC50: 383 nM
Structure (SMILES): C[C@@H]1COCCN1c1cc(C2CCOCC2)nc(-c2ccc(NC(=O)Nc3ccncc3)cc2)n1

IC50: 76 nM
Structure (SMILES): CN(C)CCN(C)C(=O)c1ccc(NC(=O)Nc2ccc(-c3nc(O)c(NC=O)c(N4CCOCC4)n3)cc2)cc1

IC50: 565 nM
Structure (SMILES): C[C@@H]1COCCN1c1cc(N2CCOC[C@H]2C)nc(-c2ccc(NC(=O)Nc3ccc(N4CCN(C)CC4)cc3)cc2)n1

IC50: 364 nM
Structure (SMILES): O=C(NCCF)Nc1ccc(-c2nc(N3CCOCC3)c3sccc3n2)cc1

IC50: 2860 nM
Structure (SMILES): O=C(Nc1ccc(-c2ccnc(N3CCOCC3)n2)cc1)OCCO

IC50: 11 nM
Structure (SMILES): O=C(Nc1ccc(-c2nc(N3CCOCC3)c3sccc3n2)cc1)Nc1cccnc1

IC50: 35 nM
Structure (SMILES): C=CCc1cnc(-c2ccc(NC(=O)Nc3cccnc3)cc2)nc1N1CCOCC1

IC50: 146 nM
Structure (SMILES): CC(C)N1CCN(C(=O)c2ccc(NC(=O)Nc3ccc(-c4nc(C5CCOCC5)cc(N5CCOC[C@H]5C)n4)cc3)cc2)CC1

Second part, the molecule before the results:

Structure (SMILES): COC(=O)Nc1ccc(-c2nc(N3CCOCC3)c3sccc3n2)cc1
IC50: 1600 nM

Structure (SMILES): CNC(=O)Nc1ccc(-c2cc(N3CCOCC3)c3cnn(C4CCN(Cc5ccccc5)CC4)c3n2)cc1
IC50: 592 nM

Structure (SMILES): C[C@@H]1COCCN1c1cc(N2CCOC[C@H]2C)nc(-c2ccc(NC(=O)Nc3cccnc3)cc2)n1
IC50: 983 nM

Structure (SMILES): C[C@@H]1COCCN1c1cc(C2CCOCC2)nc(-c2ccc(NC(=O)Nc3cccnc3)cc2)n1
IC50: 684 nM

Structure (SMILES): CN(C)CCN(C)C(=O)c1ccc(NC(=O)Nc2ccc(-c3nc(O)c(N)c(N4CCOCC4)n3)cc2)cc1
IC50: 31 nM

Structure (SMILES): C[C@@H]1COCCN1c1cc(N2CCOC[C@H]2C)nc(-c2ccc(NC(=O)Nc3ccc(C(=O)N4CCN(C)CC4)cc3)cc2)n1
IC50: 77.5 nM

Structure (SMILES): CN(C)CCOc1ccc(NC(=O)Nc2ccc(-c3nccc(N4CCOCC4)n3)cc2)cc1
IC50: 22 nM

Structure (SMILES): O=C(Nc1ccc(-c2ncc(-c3ccccc3)c(N3CCOCC3)n2)cc1)Nc1cccnc1
IC50: 53 nM

Structure (SMILES): O=C(Nc1ccncc1)Nc1ccc(-c2nc(N3CCOCC3)cc(N3CCOCC3)n2)cc1
IC50: 21 nM

Structure (SMILES): O=C(Nc1ccc(-c2nccc(N3CCOCC3)n2)cc1)Nc1ccc(N2CCOCC2)cc1
IC50: 35 nM

Structure (SMILES): C[C@@H]1COCCN1c1cc(N2CCOC[C@H]2C)nc(-c2ccc(NC(=O)Nc3ccncc3)cc2)n1
IC50: 572 nM

Structure (SMILES): CC(C)N1CCN(C(=O)c2ccc(NC(=O)Nc3ccc(-c4nc(N5CCOC[C@H]5C)cc(N5CCOC[C@H]5C)n4)cc3)cc2)CC1
IC50: 113 nM

Structure (SMILES): O=C(Nc1ccccc1)Nc1ccc(-c2nc(N3CCOCC3)c3sccc3n2)cc1
IC50: 7 nM

Structure (SMILES): C[C@@H]1COCCN1c1cc(C2CCOCC2)nc(-c2ccc(NC(=O)Nc3ccc(N4CCN(C)CC4)cc3)cc2)n1
IC50: 420 nM

Structure (SMILES): CNC(=O)Nc1ccc(-c2ccnc(N3CCOCC3)n2)cc1
IC50: 394 nM

Structure (SMILES): O=C(Nc1ccncc1)Nc1ccc(-c2cc3nccn3c(N3CCOCC3)n2)cc1
IC50: 654 nM

Structure (SMILES): O=C(Nc1ccc(-c2cc(N3CCOCC3)nc(-c3ccccc3)n2)cc1)NC1CC1
IC50: 3070 nM

Structure (SMILES): O=C(Nc1ccc(-c2cc3nccn3c(N3CCOCC3)n2)cc1)NC1CC1
IC50: 5080 nM

Structure (SMILES): CNC(=O)Nc1ccc(-c2nc(N3CCOCC3)c3sccc3n2)cc1
IC50: 93 nM

Structure (SMILES): O=C(Nc1ccncc1)Nc1ccc(-c2ncc(Cl)c(N3CCOCC3)n2)cc1
IC50: 42 nM

Structure (SMILES): CCNC(=O)Nc1ccc(-c2nccc(N3CCOCC3)n2)cc1
IC50: 415 nM

Structure (SMILES): O=C(Nc1ccncc1)Nc1ccc(-c2nccc(N3CCOCC3)n2)cc1
IC50: 15 nM

Structure (SMILES): CN1CCN(c2ccc(NC(=O)Nc3ccc(-c4cc(N5CCOCC5)nc(-c5ccccc5)n4)cc3)cc2)CC1
IC50: 7770 nM

Structure (SMILES): O=C(Nc1ccc(-c2nc(N3CCOCC3)c3sccc3n2)cc1)NC1CC1
IC50: 636 nM

Structure (SMILES): Cc1ccc2c(N3CCOCC3)nc(-c3ccc(NC(=O)Nc4ccncc4)cc3)nc2c1
IC50: 35 nM

Structure (SMILES): O=C(NCCO)Nc1ccc(-c2nc(N3CCOCC3)c3sccc3n2)cc1
IC50: 141 nM

Structure (SMILES): O=C(Nc1ccc(-c2nccc(N3CCOCC3)n2)cc1)OCCO
IC50: 2550 nM

Structure (SMILES): O=CNc1c(O)nc(-c2ccc(NC(=O)Nc3ccc(C(=O)NCCN4CCCCC4)cc3)cc2)nc1N1CCOCC1
IC50: 202 nM

Structure (SMILES): CN1CCN(c2ccc(NC(=O)Nc3ccc(-c4ccnc(N5CCOCC5)n4)cc3)cn2)CC1
IC50: 79 nM

Structure (SMILES): O=C(Nc1ccc(-c2nccc(N3CCOCC3)n2)cc1)NC1CC1
IC50: 2750 nM

Structure (SMILES): O=C(Nc1ccc(-c2ccnc(N3CCOCC3)n2)cc1)Nc1cccnc1
IC50: 42 nM

Structure (SMILES): CNC(=O)Nc1ccc(-c2cc3nccn3c(N3CCOCC3)n2)cc1
IC50: 2970 nM
